Test results published in ChEMBL document CHEMBL1201862, “PubChem BioAssay data set” (2004).
The source made the active and inactive calls.

Experiments:
Type in all cases: functional
[1] = target: Dual specificity tyrosine-phosphorylation-regulated kinase 1A (Homo sapiens, UniProt Q13627);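 note: measured against DYRK1A as one member of a broad kinome profiling panel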
[2] = target: Dual specificity mitogen-activated protein kinase kinase 2 (Homo sapiens, UniProt P36507); assay: Navigating the Kinome. Panel member name: MAP2K2
[3] = target: Mitogen-activated protein kinase 9 (Homo sapiens, UniProt P45984);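 note: value from a kinome panel profiling assay, MAPK9 panel entry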
[4] = target: ALK tyrosine kinase receptor (Homo sapiens, UniProt Q9UM73);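 note: ALK tested as one member of a kinase panel screen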
[5] = target: Rho-associated protein kinase 1 (Homo sapiens, UniProt Q13464);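 note: measured within a broad kinome-wide panel profiling many kinases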
[6] = target: Insulin-like growth factor 1 receptor (Homo sapiens, UniProt P08069); assay: Navigating the Kinome. Panel member name: IGF1R
[7] = target: Serine/threonine-protein kinase PAK 4 (Homo sapiens, UniProt O96013);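 note: value obtained within a kinome profiling panel in which PAK4 was one of the panel members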
Aurora kinase B = Aurora kinase B (Homo sapiens, UniProt Q96GD4)
[8] = target: Tyrosine-protein kinase Fyn (Homo sapiens, UniProt P06241)
[9] = target: Dual specificity protein kinase CLK2 (Homo sapiens, UniProt P49760)
[10] = target: G protein-coupled receptor kinase 5 (Homo sapiens, UniProt P34947); assay: Navigating the Kinome. Panel member name: GPRK5
[11] = target: Inhibitor of nuclear factor kappa-B kinase subunit epsilon (Homo sapiens, UniProt Q14164); assay: Navigating the Kinome. Panel member name: IKBKE
[12] = target: Dual specificity mitogen-activated protein kinase kinase 1 (Homo sapiens, UniProt Q02750); assay: Navigating the Kinome. Panel member name: MAP2K1
[13] = target: Tyrosine-protein kinase JAK3 (Homo sapiens, UniProt P52333)
[14] = target: T1, Serine/threonine-protein kinase D3 (Homo sapiens, UniProt O94806);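 note: determined within a kinase panel screen, with PRKCN as the panel member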
T1 sequence (O94806 whole entry): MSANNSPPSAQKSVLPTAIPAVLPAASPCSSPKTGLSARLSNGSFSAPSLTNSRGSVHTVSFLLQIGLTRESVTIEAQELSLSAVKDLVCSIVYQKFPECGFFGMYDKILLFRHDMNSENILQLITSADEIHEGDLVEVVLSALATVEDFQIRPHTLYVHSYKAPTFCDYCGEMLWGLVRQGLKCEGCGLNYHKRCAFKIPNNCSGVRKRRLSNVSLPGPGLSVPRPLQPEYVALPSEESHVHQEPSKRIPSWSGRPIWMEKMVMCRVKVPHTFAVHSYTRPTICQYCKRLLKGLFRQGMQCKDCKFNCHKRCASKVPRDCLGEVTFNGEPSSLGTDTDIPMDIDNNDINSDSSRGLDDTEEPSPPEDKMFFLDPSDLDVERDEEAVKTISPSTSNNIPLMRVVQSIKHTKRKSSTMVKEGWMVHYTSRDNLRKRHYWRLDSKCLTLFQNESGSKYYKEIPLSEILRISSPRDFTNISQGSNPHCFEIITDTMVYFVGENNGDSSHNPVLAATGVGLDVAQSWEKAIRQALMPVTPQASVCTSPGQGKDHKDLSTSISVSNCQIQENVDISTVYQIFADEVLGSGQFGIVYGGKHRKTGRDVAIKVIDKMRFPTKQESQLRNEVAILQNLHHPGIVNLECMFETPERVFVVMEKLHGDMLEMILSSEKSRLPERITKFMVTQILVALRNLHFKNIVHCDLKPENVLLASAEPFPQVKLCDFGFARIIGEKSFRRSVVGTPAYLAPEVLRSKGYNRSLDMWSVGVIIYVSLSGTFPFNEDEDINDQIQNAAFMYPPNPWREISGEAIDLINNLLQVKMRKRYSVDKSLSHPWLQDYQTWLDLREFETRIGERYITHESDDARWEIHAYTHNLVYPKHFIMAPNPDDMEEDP

[15] = target: Leukocyte tyrosine kinase receptor (Homo sapiens, UniProt P29376); assay: Navigating the Kinome. Panel member name: LTK
LIM domain kinase 1 = LIM domain kinase 1 (Homo sapiens, UniProt P53667); assay: Navigating the Kinome. Panel member name: LIMK1
[16] = target: Dual specificity tyrosine-phosphorylation-regulated kinase 3 (Homo sapiens, UniProt O43781);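 note: measured as one member of a broad kinase panel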
Insulin receptor = Insulin receptor (Homo sapiens, UniProt P06213);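 note: insulin receptor kinase tested as one member of a kinome-wide kinase panel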
[17] = target: Serine/threonine-protein kinase pim-2 (Homo sapiens, UniProt Q9P1W9);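 note: value comes from a broad kinase panel profiling study in which PIM2 was one of the panel members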
[18] = target: Homeodomain-interacting protein kinase 4 (Homo sapiens, UniProt Q8NE63)
[19] = target: Tyrosine-protein kinase FRK (Homo sapiens, UniProt P42685);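 note: FRK tested as one member of a kinome panel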
[20] = target: Serine/threonine-protein kinase PLK4 (Homo sapiens, UniProt O00444);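 note: PLK4 measured as one member of a kinome-wide kinase profiling panel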
[21] = target: Tyrosine-protein kinase ITK/TSK (Homo sapiens, UniProt Q08881);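 note: affinity for ITK measured as one member of a broad kinase panel profiling binding across the kinome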
[22] = target: Megakaryocyte-associated tyrosine-protein kinase (Homo sapiens, UniProt P42679);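 note: affinity measured as one member of a kinase panel (Navigating the Kinome) against MATK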
[23] = target: Vascular endothelial growth factor receptor 3 (Homo sapiens, UniProt P35916);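 note: value from a kinome-wide profiling panel, with FLT4 as the panel member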
[24] = target: MAP kinase-activated protein kinase 5 (Homo sapiens, UniProt Q8IW41);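 note: measured as one member of a kinome panel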
[25] = target: Calcium/calmodulin-dependent protein kinase type II subunit gamma (Homo sapiens, UniProt Q13555)
[26] = target: Mast/stem cell growth factor receptor Kit (Homo sapiens, UniProt P10721);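 note: KIT entry within a kinase panel assay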
[27] = target: Serine/threonine-protein kinase pim-3 (Homo sapiens, UniProt Q86V86);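 note: value obtained as one member of a broad kinase panel profiling effort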
[28] = target: Proto-oncogene tyrosine-protein kinase Src (Homo sapiens, UniProt P12931);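 note: SRC entry within a kinome-wide kinase profiling panel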
[29] = target: Interleukin-1 receptor-associated kinase 1 (Homo sapiens, UniProt P51617);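 note: IRAK1 tested as one member of a kinome panel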
[30] = target: Serine/threonine-protein kinase D2 (Homo sapiens, UniProt Q9BZL6);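 note: measured against PRKD2 as one member of a kinome-wide kinase profiling panel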
[31] = target: Tyrosine-protein kinase Srms (Homo sapiens, UniProt Q9H3Y6);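 note: SRMS measured as one member of a kinome-wide kinase profiling panel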

Sequence of Insulin-like growth factor 1 receptor (P08069 31-736 limits assumed): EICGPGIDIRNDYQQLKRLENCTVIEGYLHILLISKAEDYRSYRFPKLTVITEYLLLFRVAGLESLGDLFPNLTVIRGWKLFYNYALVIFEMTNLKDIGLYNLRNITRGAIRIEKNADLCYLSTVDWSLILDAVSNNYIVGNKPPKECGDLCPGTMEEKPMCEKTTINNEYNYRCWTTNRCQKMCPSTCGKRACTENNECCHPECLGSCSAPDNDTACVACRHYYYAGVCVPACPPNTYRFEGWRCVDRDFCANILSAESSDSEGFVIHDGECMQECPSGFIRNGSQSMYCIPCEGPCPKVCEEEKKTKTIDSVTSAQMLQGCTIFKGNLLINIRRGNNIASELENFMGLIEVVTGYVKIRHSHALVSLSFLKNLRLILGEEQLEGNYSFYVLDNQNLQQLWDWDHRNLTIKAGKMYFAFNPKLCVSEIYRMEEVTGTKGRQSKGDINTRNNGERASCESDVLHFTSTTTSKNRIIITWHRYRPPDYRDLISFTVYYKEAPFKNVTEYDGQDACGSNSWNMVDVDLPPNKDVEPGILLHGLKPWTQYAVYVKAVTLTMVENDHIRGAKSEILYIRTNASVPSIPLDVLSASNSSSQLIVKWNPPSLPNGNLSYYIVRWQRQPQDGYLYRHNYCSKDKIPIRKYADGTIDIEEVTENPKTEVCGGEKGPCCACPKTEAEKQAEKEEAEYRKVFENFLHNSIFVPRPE
Sequence of Insulin-like growth factor 1 receptor (P08069 741-1367 limits assumed): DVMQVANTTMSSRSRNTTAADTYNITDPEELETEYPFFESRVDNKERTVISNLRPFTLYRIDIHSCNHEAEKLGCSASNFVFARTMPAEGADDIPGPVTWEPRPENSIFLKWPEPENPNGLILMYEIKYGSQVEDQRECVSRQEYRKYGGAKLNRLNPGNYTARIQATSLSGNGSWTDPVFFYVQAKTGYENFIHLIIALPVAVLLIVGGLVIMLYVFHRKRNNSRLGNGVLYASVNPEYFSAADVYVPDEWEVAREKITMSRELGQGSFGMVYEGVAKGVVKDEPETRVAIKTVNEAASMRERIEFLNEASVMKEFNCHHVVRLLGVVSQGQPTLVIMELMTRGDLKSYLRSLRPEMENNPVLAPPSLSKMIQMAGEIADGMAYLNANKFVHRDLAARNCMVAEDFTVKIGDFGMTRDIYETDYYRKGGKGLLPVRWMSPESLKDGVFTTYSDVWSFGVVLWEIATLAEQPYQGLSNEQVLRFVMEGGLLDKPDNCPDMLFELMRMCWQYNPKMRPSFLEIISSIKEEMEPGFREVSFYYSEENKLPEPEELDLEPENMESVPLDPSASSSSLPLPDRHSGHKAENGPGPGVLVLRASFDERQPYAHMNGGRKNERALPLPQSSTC
Sequence of Mitogen-activated protein kinase 9 (P45984 whole entry): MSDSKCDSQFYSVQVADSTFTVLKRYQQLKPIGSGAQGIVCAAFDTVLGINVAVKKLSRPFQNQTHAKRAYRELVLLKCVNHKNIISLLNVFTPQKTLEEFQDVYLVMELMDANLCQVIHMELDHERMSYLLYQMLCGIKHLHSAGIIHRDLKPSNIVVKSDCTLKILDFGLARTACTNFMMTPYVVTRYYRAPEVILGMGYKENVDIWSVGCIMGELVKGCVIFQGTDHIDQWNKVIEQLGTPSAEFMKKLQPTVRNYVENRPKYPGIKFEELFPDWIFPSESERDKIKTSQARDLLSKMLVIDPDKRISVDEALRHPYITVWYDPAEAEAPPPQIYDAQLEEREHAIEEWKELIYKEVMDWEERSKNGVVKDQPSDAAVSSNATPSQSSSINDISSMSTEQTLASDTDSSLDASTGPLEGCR
Sequence of Tyrosine-protein kinase Fyn (P06241 whole entry): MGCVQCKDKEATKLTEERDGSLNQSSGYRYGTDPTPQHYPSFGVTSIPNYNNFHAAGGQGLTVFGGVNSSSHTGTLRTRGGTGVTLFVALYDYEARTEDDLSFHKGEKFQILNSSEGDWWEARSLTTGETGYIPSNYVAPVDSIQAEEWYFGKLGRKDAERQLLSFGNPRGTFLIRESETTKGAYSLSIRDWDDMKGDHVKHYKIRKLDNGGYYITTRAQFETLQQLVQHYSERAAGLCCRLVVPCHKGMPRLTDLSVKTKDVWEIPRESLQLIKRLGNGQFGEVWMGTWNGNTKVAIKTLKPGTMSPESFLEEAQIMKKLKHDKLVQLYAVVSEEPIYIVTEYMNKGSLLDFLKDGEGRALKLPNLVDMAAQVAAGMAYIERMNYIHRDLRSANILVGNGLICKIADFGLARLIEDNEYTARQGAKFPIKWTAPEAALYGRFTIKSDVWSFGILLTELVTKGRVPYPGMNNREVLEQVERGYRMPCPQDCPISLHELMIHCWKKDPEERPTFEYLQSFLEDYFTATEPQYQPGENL
Sequence of Aurora kinase B (Q96GD4 whole entry): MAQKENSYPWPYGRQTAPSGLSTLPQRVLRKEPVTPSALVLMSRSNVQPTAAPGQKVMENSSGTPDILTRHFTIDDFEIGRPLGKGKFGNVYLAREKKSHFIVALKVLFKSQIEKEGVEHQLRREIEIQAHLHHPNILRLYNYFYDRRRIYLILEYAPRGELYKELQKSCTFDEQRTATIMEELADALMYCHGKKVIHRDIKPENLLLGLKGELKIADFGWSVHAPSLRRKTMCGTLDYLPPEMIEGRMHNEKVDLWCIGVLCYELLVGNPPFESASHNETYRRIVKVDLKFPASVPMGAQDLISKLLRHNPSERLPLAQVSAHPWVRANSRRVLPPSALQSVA
Sequence of Serine/threonine-protein kinase PAK 4 (O96013 whole entry): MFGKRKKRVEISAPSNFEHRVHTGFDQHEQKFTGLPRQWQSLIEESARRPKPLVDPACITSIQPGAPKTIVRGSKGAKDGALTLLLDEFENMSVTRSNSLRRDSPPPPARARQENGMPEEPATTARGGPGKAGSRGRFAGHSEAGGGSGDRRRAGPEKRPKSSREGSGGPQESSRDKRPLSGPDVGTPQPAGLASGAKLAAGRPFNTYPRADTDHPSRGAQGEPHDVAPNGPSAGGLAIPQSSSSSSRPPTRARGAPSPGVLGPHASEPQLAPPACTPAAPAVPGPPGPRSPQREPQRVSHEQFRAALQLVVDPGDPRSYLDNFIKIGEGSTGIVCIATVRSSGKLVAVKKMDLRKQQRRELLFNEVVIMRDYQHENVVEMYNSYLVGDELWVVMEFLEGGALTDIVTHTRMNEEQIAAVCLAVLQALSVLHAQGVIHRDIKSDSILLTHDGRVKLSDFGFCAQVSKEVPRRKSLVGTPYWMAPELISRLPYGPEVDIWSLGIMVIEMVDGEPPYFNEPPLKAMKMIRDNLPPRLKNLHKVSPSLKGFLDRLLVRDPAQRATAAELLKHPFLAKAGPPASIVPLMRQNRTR
Sequence of ALK tyrosine kinase receptor (Q9UM73 whole entry): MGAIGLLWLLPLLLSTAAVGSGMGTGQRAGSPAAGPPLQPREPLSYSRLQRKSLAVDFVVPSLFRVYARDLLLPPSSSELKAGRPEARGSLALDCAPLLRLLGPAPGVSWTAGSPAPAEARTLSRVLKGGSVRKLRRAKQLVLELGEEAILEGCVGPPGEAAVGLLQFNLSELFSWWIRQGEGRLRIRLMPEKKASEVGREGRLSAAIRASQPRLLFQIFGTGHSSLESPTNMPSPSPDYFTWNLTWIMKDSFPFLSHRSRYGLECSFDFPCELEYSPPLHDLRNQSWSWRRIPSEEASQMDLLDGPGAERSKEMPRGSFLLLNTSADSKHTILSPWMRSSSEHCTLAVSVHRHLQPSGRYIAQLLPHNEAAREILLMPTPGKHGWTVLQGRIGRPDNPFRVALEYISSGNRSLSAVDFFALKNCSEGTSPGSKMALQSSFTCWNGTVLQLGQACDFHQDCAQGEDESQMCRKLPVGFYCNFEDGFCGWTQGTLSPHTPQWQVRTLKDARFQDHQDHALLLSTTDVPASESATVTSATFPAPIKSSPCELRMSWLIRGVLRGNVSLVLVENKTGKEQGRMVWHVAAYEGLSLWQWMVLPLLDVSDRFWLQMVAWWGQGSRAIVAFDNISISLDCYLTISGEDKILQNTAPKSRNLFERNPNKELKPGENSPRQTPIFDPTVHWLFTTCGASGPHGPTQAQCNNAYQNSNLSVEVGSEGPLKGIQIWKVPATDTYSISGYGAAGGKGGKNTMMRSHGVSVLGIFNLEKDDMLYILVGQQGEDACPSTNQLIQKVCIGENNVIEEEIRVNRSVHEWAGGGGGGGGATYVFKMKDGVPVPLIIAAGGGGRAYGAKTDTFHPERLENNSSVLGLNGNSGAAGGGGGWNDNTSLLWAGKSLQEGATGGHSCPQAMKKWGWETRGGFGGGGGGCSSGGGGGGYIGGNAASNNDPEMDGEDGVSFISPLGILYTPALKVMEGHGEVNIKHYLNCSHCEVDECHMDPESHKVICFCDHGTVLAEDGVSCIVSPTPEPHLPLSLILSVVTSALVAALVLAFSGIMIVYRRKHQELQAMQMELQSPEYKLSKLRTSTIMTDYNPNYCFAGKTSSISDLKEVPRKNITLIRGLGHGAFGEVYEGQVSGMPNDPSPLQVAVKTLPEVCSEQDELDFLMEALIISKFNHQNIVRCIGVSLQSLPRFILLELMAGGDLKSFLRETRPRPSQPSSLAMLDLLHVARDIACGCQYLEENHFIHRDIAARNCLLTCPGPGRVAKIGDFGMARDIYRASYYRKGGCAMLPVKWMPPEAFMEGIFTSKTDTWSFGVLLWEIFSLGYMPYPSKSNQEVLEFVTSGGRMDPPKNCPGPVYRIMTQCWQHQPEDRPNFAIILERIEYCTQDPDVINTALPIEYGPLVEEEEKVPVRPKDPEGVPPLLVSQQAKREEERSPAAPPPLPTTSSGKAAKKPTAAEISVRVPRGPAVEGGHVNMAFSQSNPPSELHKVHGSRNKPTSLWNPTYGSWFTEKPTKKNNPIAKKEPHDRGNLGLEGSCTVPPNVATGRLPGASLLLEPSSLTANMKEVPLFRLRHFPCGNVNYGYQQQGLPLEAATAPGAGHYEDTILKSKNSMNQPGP

Structure (SMILES): [2H]C([2H])([2H])Oc1cccc(C(C)NC(=O)c2sc(-c3ccncc3)nc2C)c1 (configuration not stated)
- Ki [1]: > 2 µM (inactive)
- Ki [2]: > 3.98 µM (inactive)
- Ki [3]: > 3.98 µM (inactive)
- Ki [4]: > 6.31 µM (inactive)
- Ki [5]: 0.0126 µM (active)
- Ki [6]: > 2.51 µM (inactive)
- Ki [7]: > 5.01 µM (inactive)
- Ki (Aurora kinase B): > 3.98 µM (inactive)
- Ki [8]: > 6.31 µM (inactive)
- Ki [9]: > 3.98 µM (inactive)
- Ki [10]: 3.16 µM (active)
- Ki [11]: > 3.16 µM (inactive)
- Ki [12]: > 3.16 µM (inactive)
- Ki [13]: > 5.01 µM (inactive)
- Ki [14]: > 3.98 µM (inactive)
- Ki [15]: > 2.51 µM (inactive)
- Ki (LIM domain kinase 1): > 3.16 µM (inactive)

Structure (SMILES): Cc1n[nH]c2ccc(-c3cncc(OCC(N)Cc4ccc(Cl)c(Cl)c4)c3)cc12 (configuration not stated)
- Ki [16]: 0.01 µM (active)
- Ki (Insulin receptor): 2.51 µM (active)
- Ki [17]: 0.0126 µM (active)
- Ki [3]: 3.16 µM (active)
- Ki [4]: 0.794 µM (active)
- Ki [18]: 2.51 µM (active)
- Ki [19]: > 2.51 µM (inactive)
- Ki [6]: > 2 µM (inactive)
- Ki [20]: 1.26 µM (active)
- Ki [7]: 0.0794 µM (active)
- Ki [21]: > 1.58 µM (inactive)
- Ki [22]: > 2 µM (inactive)
- Ki [23]: 1.58 µM (active)
- Ki (Aurora kinase B): 0.251 µM (active)
- Ki [8]: > 0.794 µM (inactive)
- Ki [24]: > 1.58 µM (inactive)
- Ki [25]: 0.0158 µM (active)
- Ki [26]: > 1.26 µM (inactive)
- Ki [27]: 0.0158 µM (active)
- Ki [13]: 1.26 µM (active)
- Ki [14]: 0.00398 µM (active)
- Ki [28]: > 2 µM (inactive)
- Ki [29]: 0.501 µM (active)
- Ki [30]: 0.0316 µM (active)
- Ki [31]: > 1.58 µM (inactive)
